The target in this test is T1, BB2r (gastrin-releasing peptide receptor) (Homo sapiens, UniProt P30550).
T1 construct: host or cells: PC-3 human prostate cancer cells (whole cells in suspension)
As to the kind of experiment: In vitro competitive cell-binding, displacement of [125I-Tyr4]-Bombesin on PC-3 cells. The note with it: PC-3 cells (~3×10^4), 4 °C, 40 min, RPMI 1640 pH 7.4, mean ± SEM (n = 6). As for the experimental part: Data were presented as Mean ± SD/SEM as noted. […] In vitro stability studies of the radioconjugate in various buffers were analyzed by the two-tailed Student’s t-test. For comparison between the two models, analysis of the biodistribution studies, hypoxic burden and blood vessel density of tumor was carried out by a two-tailed Student’s t-test. Comparisons of the means of the BB2r-uptake, blood perfusion, hypoxic burden and blood vessel density of the tumors among the three tumor volume groups for each animal model were analyzed by one-way ANOVA. If the overall p-value was statistically significant, pairwise comparisons were adjusted using Tukey’s method. A p-value < 0.05 was considered statistically significant.
In Vitro Competitive Cell-Binding Studies […]
binding assays using PC-3 cells.
Establishment of Stably Transfected PC-3-Luc Cells
(firefly)-2A-GFP (Puro), AMSBIO) for transfection.
The medium was removed and replaced with 0.5 […]
and swirled to mix. […] Once the cells grew to confluence, they […]
1.5 mL of suspended cells in PBS at […]
to culture for in vitro and in vivo studies.
Cells were incubated at 37 °C
Development of PC-3 Xenograft SCID Mice
The tumor size was monitored during the growth by caliper measurement.
Development of PC-3 Orthotopic SCID mice […]
clips. […] The animals were monitored continuously for the following weeks. […]
A general note: In a radioligand displacement assay an active substance lowers the binding of a labelled ligand.

The IC50 is the midpoint of a concentration-inhibition curve. Low values mean inhibition by little substance, high ones a need for much substance.

Structures are written as SMILES.

T1 sequence (P30550 whole entry): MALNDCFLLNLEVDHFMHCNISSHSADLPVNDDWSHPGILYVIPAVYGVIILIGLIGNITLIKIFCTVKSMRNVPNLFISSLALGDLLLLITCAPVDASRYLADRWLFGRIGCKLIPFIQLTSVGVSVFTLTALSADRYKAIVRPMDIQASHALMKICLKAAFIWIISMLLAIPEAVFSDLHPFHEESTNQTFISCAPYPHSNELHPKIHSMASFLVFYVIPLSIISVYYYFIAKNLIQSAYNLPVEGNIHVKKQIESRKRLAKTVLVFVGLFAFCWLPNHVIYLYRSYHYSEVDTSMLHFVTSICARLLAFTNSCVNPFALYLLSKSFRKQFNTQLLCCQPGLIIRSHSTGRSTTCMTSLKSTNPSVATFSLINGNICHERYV

Take `CSCC[C@H](NC(=O)[C@H](CC(C)C)NC(=O)[C@H](Cc1c[nH]cn1)NC(=O)CNC(=O)[C@@H](NC(=O)[C@H](C)NC(=O)[C@H](Cc1c[nH]c2ccccc12)NC(=O)[C@H](CCC(N)=O)NC(=O)CCOCCOCCOCCOCCNC(=O)[C@@H](CO)NC(=O)[C@@H](CO)NC(=O)[C@@H](CO)NC(=O)[C@@H](CO)NC(=O)[C@@H](CO)NC(=O)CN1CCN(CC(=O)O)CCN(CC(=O)O)CCN(CC(=O)O)CC1)C(C)C)C(N)=O` [DOTA-SP714, DOTA-(D)S-(D)S-(D)S-(D)S-(D)S-PEG3–BBN(7–14)NH2]: the IC50 turned out to be 9.8 ± 1.7 nM.

Values taken from paper PMC6668441, “Comparative Study of Subcutaneous and Orthotopic Mouse Models of Prostate Cancer: Vascular Perfusion, Vasculature Density, Hypoxic Burden and BB2r-Targeting Efficacy” (Scientific Reports, 2019).
